Like-named read-outs stand apart in the source and are kept apart here.
Experiments:
[1] = target: Human norepinephrine transporter (NET) (Homo sapiens (Human), UniProt P23975); assay: Binding Assay to Human Norepinephrine Transporter (NET); details: Table 2, dual compounds; human NET enriched membranes, 5 nM [3H]-Nisoxetin; read-out: Ki(nM) NET Hum
Method: Binding Assay to Human Norepinephrine Transporter (NET).
Human norepinephrine transporter (NET) enriched membranes (5 μg) were incubated with 5 nM of radiolabeled [3H]-Nisoxetin in assay buffer containing 50 mM Tris-HCl, 120 mM NaCl, 5 mM KCl, pH 7.4.
NSB (non specific binding) was measured by adding 10 μM desipramine. The binding of the test compound was measured in five different concentrations. After 60 min incubation at 4° C., binding reaction was terminated by filtering through Multiscreen GF/C (Millipore) presoaked in 0.5% polyethyleneimine in Vacuum Manifold Station, followed by 3 washes with ice-cold filtration buffer containing 50 mM Tris-HCl, 0.9% NaCl, pH 7.4.
Filter plates were dried at 60° C. for 1 hour and 30 μl of scintillation cocktail were added to each well before radioactivity reading.

[2] = target: Human α2δ-1 subunit of Cav2.2 calcium channel (Homo sapiens (Human), UniProt P54289); assay: Binding Assay to Human α2δ-1 Subunit of Cav2.2 Calcium Channel; details: human α2δ-1 enriched membranes, 15 nM [3H]-Gabapentin, read-out: Ki(nM) alpha2delta Hum
Sequence of Human α2δ-1 subunit of Cav2.2 calcium channel (P54289 25-1103): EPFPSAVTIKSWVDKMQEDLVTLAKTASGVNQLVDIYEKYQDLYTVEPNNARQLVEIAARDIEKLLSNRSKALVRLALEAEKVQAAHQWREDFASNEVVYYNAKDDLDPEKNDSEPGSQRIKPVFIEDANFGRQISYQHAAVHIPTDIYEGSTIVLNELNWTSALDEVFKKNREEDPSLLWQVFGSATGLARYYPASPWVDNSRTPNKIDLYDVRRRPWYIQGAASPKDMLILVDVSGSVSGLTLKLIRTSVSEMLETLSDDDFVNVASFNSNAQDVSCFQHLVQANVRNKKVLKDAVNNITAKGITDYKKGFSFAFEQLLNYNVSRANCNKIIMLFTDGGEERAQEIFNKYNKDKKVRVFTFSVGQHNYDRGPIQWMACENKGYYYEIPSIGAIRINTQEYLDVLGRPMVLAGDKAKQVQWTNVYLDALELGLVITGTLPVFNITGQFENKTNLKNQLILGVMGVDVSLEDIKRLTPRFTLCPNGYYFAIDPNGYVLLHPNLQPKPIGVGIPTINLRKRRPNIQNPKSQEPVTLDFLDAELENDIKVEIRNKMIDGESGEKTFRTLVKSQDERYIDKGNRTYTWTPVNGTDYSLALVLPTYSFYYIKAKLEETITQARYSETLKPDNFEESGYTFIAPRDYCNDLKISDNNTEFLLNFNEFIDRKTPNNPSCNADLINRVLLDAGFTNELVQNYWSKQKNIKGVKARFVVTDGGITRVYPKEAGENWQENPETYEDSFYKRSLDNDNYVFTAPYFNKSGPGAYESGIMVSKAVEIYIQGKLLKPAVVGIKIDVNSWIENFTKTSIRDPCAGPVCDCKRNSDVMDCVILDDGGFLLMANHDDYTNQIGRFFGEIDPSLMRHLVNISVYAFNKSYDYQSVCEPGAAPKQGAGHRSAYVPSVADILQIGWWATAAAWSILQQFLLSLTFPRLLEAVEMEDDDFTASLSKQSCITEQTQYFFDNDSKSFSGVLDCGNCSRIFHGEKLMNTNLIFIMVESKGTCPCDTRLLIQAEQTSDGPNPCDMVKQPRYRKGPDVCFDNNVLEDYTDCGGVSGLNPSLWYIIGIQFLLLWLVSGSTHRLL
Method in brief: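 Radioligand filtration binding at the α2δ-1 subunit, test compound at five concentrations; nonspecific binding defined with 10 μM pregabalin. Incubated 60 min at 27 °C, stopped by GF/C filtration (0.5% PEI presoaked) with ice-cold 50 mM Tris-HCl pH 7.4 washes; bound radioactivity counted by scintillation.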

Sequence of Human norepinephrine transporter (NET) (P23975 whole entry): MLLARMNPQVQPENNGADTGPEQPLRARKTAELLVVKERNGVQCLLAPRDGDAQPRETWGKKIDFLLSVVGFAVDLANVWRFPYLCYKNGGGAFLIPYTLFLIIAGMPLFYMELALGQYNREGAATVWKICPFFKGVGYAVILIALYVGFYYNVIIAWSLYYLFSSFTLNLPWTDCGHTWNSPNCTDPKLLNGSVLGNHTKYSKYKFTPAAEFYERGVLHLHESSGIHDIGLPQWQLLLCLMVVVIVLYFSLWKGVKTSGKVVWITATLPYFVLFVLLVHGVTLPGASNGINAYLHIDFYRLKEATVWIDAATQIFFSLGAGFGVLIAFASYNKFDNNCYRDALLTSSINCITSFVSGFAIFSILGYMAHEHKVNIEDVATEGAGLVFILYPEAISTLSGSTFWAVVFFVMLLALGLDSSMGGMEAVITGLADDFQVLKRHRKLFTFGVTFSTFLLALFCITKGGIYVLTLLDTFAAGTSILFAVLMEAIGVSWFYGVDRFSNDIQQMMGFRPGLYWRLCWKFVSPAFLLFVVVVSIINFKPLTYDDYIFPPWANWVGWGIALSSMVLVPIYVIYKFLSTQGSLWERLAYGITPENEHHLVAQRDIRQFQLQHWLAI

Row | SMILES | Ki [1] [nM] | Ki ([2]; Table 1) [nM] | Ki ([2]; Table 2, dual compounds) [nM]
1 | CNCCC(Oc1cc(F)cc(N2CCN(C)c3ncccc3C2=O)c1)c1cccc(F)c1 (stereo not drawn) [Example 121, 4-(3-Fluoro-5-(1-(3-fluorophenyl)-3-(methylamino)propoxy)phenyl)-1-methyl-1,2,3,4-tetrahydro-5H-pyrido[2,3-e][1,4]diazepin-5-one] | < 100 | < 100 | < 100
2 | CNCC[C@H](Oc1ccc(CN2CCN(C)c3ncccc3C2=O)cc1)c1cccs1 [Example 90, (S)-1-methyl-4-(4-(3-(methylamino)-1-(thiophen-2-yl)propoxy)benzyl)-1,2,3,4-tetrahydro-5H-pyrido[2,3-e][1,4]diazepin-5-one] | 100 to 500 | < 100 | < 100
3 | CNCC[C@H](Oc1ccc(CN2CCCn3nccc3C2=O)cc1)c1cccs1 [Example 104, (S)-5-(4-(3-(methylamino)-1-(thiophen-2-yl)propoxy)benzyl)-5,6,7,8-tetrahydro-4H-pyrazolo[1,5-a][1,4]diazepin-4-one] | 100 to 500 | 100 to 500 | 100 to 500
4 | CNCCC(Oc1cccc(N2CCN(C)c3nc(N(C)C)ccc3C2=O)c1)c1cccs1 (stereo not drawn) [Example 70, 8-(Dimethylamino)-1-methyl-4-(3-(3-(methylamino)-1-(thiophen-2-yl)propoxy)phenyl)-1,2,3,4-tetrahydro-5H-pyrido[2,3-e][1,4]diazepin-5-one] | 100 to 500 | 500 to 3000 | 500 to 3000
5 | CNCC[C@H](Oc1cccc(N2CCN(C(C)C)CCC2=O)c1)c1ccsc1 [Example 77, (S)-1-isopropyl-4-(3-(3-(methylamino)-1-(thiophen-3-yl)propoxy)phenyl)-1,4-diazepan-5-one] | 100 to 500 | 100 to 500 | 100 to 500
6 | CCNc1ccc2c(n1)N(C)CCN(Cc1ccc(O[C@@H](CCNC)c3cccs3)cc1)C2=O [Example 92, (S)-8-(ethylamino)-1-methyl-4-(4-(3-(methylamino)-1-(thiophen-2-yl)propoxy)benzyl)-1,2,3,4-tetrahydro-5H-pyrido[2,3-e][1,4]diazepin-5-one] | < 100 | 100 to 500 | 100 to 500
7 | CNCCC(Oc1ccc(CN2CCN(C)c3nc(C)ccc3C2=O)cc1)c1ccccc1 (stereo not drawn) [Example 110, 1,8-Dimethyl-4-(4-(3-(methylamino)-1-phenylpropoxy)benzyl)-1,2,3,4-tetrahydro-5H-pyrido[2,3-e][1,4]diazepin-5-one] | < 100 | 500 to 3000 | 500 to 3000
8 | CNCC[C@@H](Oc1cccc(N2CCN(C(C)C)CCC2=O)c1)c1ccsc1 [Example 76, (R)-1-isopropyl-4-(3-(3-(methylamino)-1-(thiophen-3-yl)propoxy)phenyl)-1,4-diazepan-5-one] | < 100 | 500 to 3000 | 500 to 3000
9 | CNCC[C@@H](Oc1cccc(N2CCN(C(C)C)CCC2=O)c1)c1cccs1 [Example 67, (R)-1-isopropyl-4-(3-(3-(methylamino)-1-(thiophen-2-yl)propoxy)phenyl)-1,4-diazepan-5-one] | 500 to 1000 | 100 to 500 | 100 to 500
10 | CNCCC(Oc1ccc(CN2CCN(C)c3ncccc3C2=O)c(F)c1)c1ccccc1F (stereo not drawn) [Example 129, 4-(2-Fluoro-4-(1-(2-fluorophenyl)-3-(methylamino)propoxy)benzyl)-1-methyl-1,2,3,4-tetrahydro-5H-pyrido[2,3-e][1,4]diazepin-5-one] | < 100 | 100 to 500 | 100 to 500
11 | CNCC[C@H](Oc1ccc(CN2CCN(C)c3nc(C(F)(F)F)ccc3C2=O)cc1)c1cccs1 [Example 93, (S)-1-methyl-4-(4-(3-(methylamino)-1-(thiophen-2-yl)propoxy)benzyl)-8-(trifluoromethyl)-1,2,3,4-tetrahydro-5H-pyrido[2,3-e][1,4]diazepin-5-one] | 100 to 500 | 100 to 500 | 100 to 500
12 | CNCC[C@H](Oc1ccc(CN2CCN(C)c3cnc(OC)cc3C2=O)c(F)c1)c1ccccc1 [Example 140, (S)-4-(2-fluoro-4-(3-(methylamino)-1-phenylpropoxy)benzyl)-7-methoxy-1-methyl-1,2,3,4-tetrahydro-5H-pyrido[3,4-e][1,4]diazepin-5-one] | < 100 | < 100 | < 100
13 | CNCCC(Oc1ccc(F)c(N2CCN(C)c3ncccc3C2=O)c1)c1cccc(F)c1 (stereo not drawn) [Example 119, 4-(2-Fluoro-5-(1-(3-ftuorophenyl)-3-(methylamino)propoxy)phenyl)-1-methyl-1,2,3,4-tetrahydro-5H-pyrido[2,3-e][1,4]diazepin-5-one] | < 100 | 100 to 500 | 100 to 500
14 | CNCC[C@H](Oc1ccc(CN2CCN(C)c3nc(N)ccc3C2=O)c(F)c1)c1ccccc1 [Example 137, (S)-8-amino-4-(2-fluoro-4-(3-(methylamino)-1-phenylpropoxy)benzyl)-1-methyl-1,2,3,4-tetrahydro-5H-pyrido[2,3-e][1,4]diazepin-5-one] | < 100 | 100 to 500 | 100 to 500
15 | CNCC[C@H](Oc1cccc(N2CCN(C)c3nc(N)ccc3C2=O)c1)c1cccs1 [Example 83, (S)-8-amino-1-methyl-4-(3-(3-(methylamino)-1-(thiophen-2-yl)propoxy)phenyl)-1,2,3,4-tetrahydro-5H-pyrido[2,3-e][1,4]diazepin-5-one] | 100 to 500 | 100 to 500 | 100 to 500
16 | CNCC[C@H](Oc1ccc(CN2CCN(C)c3ncccc3C2=O)c(C)c1)c1ccccc1 [Example 114, (S)-1-methyl-4-(2-methyl-4-(3-(methylamino)-1-phenylpropoxy)benzyl)-1,2,3,4-tetrahydro-5H-pyrido[2,3-e][1,4]diazepin-5-one] | 100 to 500 | 100 to 500 | 100 to 500
17 | CNCC[C@H](Oc1ccc(CN2CCN(C)c3nc(N)ccc3C2=O)c(F)c1)c1cccc(F)c1 [Example 153, (S)-8-amino-4-(2-fluoro-4-(1-(3-fluorophenyl)-3-(methylamino)propoxy)benzyl)-1-methyl-1,2,3,4-tetrahydro-5H-pyrido[2,3-e][1,4]diazepin-5-one] | < 100 | < 100 | < 100
18 | CNCC[C@H](Oc1ccc(CN2CCN(C)c3ncc(F)cc3C2=O)c(F)c1)c1ccccc1 [Example 143, (S)-7-fluoro-4-(2-fluoro-4-(3-(methylamino)-1-phenylpropoxy)benzyl)-1-methyl-1,2,3,4-tetrahydro-5H-pyrido[2,3-e][1,4]diazepin-5-one] | < 100 | 100 to 500 | 100 to 500
19 | CNCC[C@H](Oc1ccc(CN2CCN(C)c3nc(N)ccc3C2=O)cc1)c1cccs1 [Example 103, (S)-8-amino-1-methyl-4-(4-(3-(methylamino)-1-(thiophen-2-yl)propoxy)benzyl)-1,2,3,4-tetrahydro-5H-pyrido[2,3-e][1,4]diazepin-5-one] | < 100 | < 100 | < 100
20 | CNCC[C@H](Oc1ccc(CN2CCN(C)c3ncccc3C2=O)cc1)c1cccc(F)c1 [Example 151, (S)-4-(4-(1-(3-fluorophenyl)-3-(methylamjno)propoxy)benzyl)-1-methyl-1,2,3,4-tetrahydro-5H-pyrido[2,3-e][1,4]diazepin-5-one] | < 100 | 100 to 500 | 100 to 500

Reference: US11401270B2, “Alcoxyamino derivatives for treating pain and pain related conditions” (ESTEVE PHARMACEUTICALS, S.A., priority 2017, dated 2022)
